# Assay results reported in article PMC8066157, “Bovine Viral Diarrhea Virus (BVDV): A Preliminary Study on Antiviral Properties of Some Aromatic and Medicinal Plants” (Pathogens, 2021).
# “Also recorded” adds a separate entry of the source. Read-outs that look alike come from different tables or passages of the source.
# Key:
# [1] = tested on: BVDV; assay: microbe, parasite or virus in culture; type: cell-based, bovine viral diarrhea virus (strain NADL); settings: read-out: EC50 BVDV
# [2] = Cytotoxicity in mock-infected MDBK cells (MTT); settings: bovine (Bos taurus), mock-infected MDBK cells (Madin-Darby bovine kidney)
# [3] = tested on: BVDV; assay: Virucidal assay against BVDV virions; parameters: species or system bovine viral diarrhea virus; settings: 100 µM, 2 h, 4 and 37 °C
# [4] = tested on: BVDV; type: cell-based, bovine viral diarrhea virus; settings: 100, 20, 4, 0.8 µM
# [5] = tested on: MDBK cells; assay: Cytotoxicity in mock-infected MDBK cells (MTT); settings: for CC50: read-out: CC50 MDBK, mock-infected MDBK cells, MTT, pure compounds
# [6] = tested on: RSV; assay: microbe, parasite or virus in culture; type: cell-based, human respiratory syncytial virus (strain A2); settings: human respiratory syncytial virus, Vero 76, read-out: EC50 RSV
# [7] = in vitro; settings: monkey (Cercopithecus aethiops)
# [8] = tested on: CV-B5; assay: organism not typed; type: cell-based, coxsackie type B5; settings: Vero 76, read-out: EC50 CV-B5
# [9] = in vitro; settings: human
# [10] = tested on: DENV-2; type: cell-based, dengue virus (DENV-2)
# [11] = tested on: WNV; type: cell-based, west Nile virus
# [12] = tested on: YFV; type: cell-based, yellow fever virus (strain 17-D)
# [13] = tested on: BHK cells
# [14] = tested on: VV; type: cell-based, vaccinia virus
# [15] = tested on: Vero-76 cells
# [16] = Bovine viral diarrhea virus isolates and strains, MDBK
Molecule,"EC50 [1, 16] [µM]",CC50 [2] [µM],EC50 [1] [µM],CC50 [5] [µM],also measured
C=C1CCC2CC1C2(C)C (stereo not drawn) [β-Pinene],> 100,> 100,,,
C/C1=C\CC/C(C)=C/CC(C)(C)/C=C/C1 [α-Humulene],,,36 ± 0.5,> 100,Virucidal activity (BVDV titer of treated vs untreated virus) [3]: No significant differences; Reduction of BVDV titer (yield reduction) [4]: dose-dependent reduction of virus titer; also recorded: reduce the viral BVDV titer in vitro assays in a dose-dependent manner; Cytotoxicity (in words) ([5]; MDBK cells): non-cytotoxic
2+β Thujone,,,> 100,> 100,
"CC12CCC(CC1)C(C)(C)O2 [1,8-Cineole]",> 100,> 100,,,
O=c1cnn([C@@H]2O[C@H](CO)[C@@H](O)[C@H]2O)c(=O)[nH]1 [6-Aza-Uridine],,,,,EC50 [6]: 1 µM; CC50 [7]: 4 µM
Cc1cc(CCCOc2c(C)cc(-c3noc(C(F)(F)F)n3)cc2C)on1 [Pleconaril],,,,,EC50 [8]: 0.005 µM; CC50 [7]: > 100 µM
C=C(C)[C@H]1CC=C(C)CC1 [Limonene],,,> 100,> 100,
C=C1C2CCC(C2)C1(C)C (centres unmarked) [Camphene],> 100,> 100,,,
O=C1Nc2ccc(Cl)cc2[C@@](C#CC2CC2)(C(F)(F)F)O1 [Efavirenz],,,,,CC50 [9]: 40 µM
C=C1CC/C=C(\C)CC[C@@H]2[C@@H]1CC2(C)C [Trans-Caryophyllene],90 ± 1,> 100,,,
CC12CCC(CC1=O)C2(C)C (centres unmarked) [Camphor],> 100,> 100,,,
C[C@@]1(O)[C@H](O)[C@@H](CO)O[C@H]1n1cnc2c(=O)[nH]c(N)nc21 [2′-C-Me-Guanosine],,,1.6 ± 0.2,> 100,EC50 [10]: 0.3 µM; EC50 [11]: 0.4 µM; EC50 [12]: 1.2 µM; CC50 [13]: 60 µM
COc1c(C)c2c(c(O)c1C/C=C(\C)CCC(=O)O)C(=O)OC2 [Mycophen.Ac.],,,,,EC50 [14]: 1.5 µM; CC50 [15]: 20 µM
